How the values were obtained:
Format in all cases: cell-based, murine
Raw 264.7 macrophages [1] = assay: PMMA particle-induced TNF-α release from macrophages preincubated with MyD88 inhibitory peptide or control peptide (ELISA); conditions: 100 μM peptide, 24 h preincubation, PMMA particles 0.30% v/v, p<0.01
Procedure: MyD88 inhibitory peptide experiments: The murine monocyte/macrophage cell line Raw 264.7 was cultured in DMEM containing 10% (v/v) FBS (5% CO2, 37° C.). Cells were plated in 24-well tissue culture plates at 1×10^5 cells/well in 1 ml of media with serum and allowed to adhere for 24 hours. […] Following the preincubation period in each group, PMMA particles (Polysciences, 1-10 μm) were added at a dose of 0.30% v/v. Each group was plated in triplicate and the experiment was repeated three times.
Quantification of TNF-α release: Macrophages were exposed to PMMA particles and samples from the culture media were collected at 1, 4, and 12 hours post challenge. TNF-α levels were quantified using ELISA kits. Data were analyzed by ANOVA.
(§1) Preparation of particles: PMMA particles were washed 5× with 70% ethanol and incubated overnight with shaking at 4° C. The particles were then washed 3× with DPBS and resuspended to a concentration of 16% v/v. The particles were free of endotoxin using a high-sensitivity Limulus amoebocyte lysate assay (BioWhittaker).

Raw 264.7 macrophages [2] = assay: LPS-induced TNF-α release from macrophages with or without polymyxin B (ELISA); conditions: 12 h
Procedure: (§2) Polymyxin B preparation: Polymyxin B was prepared fresh before each use and added to cell cultures at a concentration of 10 μg/ml.
Raw264.7 macrophage cell culture experiments: The murine monocyte/macrophage cell line Raw 264.7 was cultured in DMEM containing 10% (v/v) FBS (5% CO2, 37° C.). Cells were plated in 24-well tissue culture plates at 1×10^5 cells/well in 1 ml of media with serum and allowed to adhere for 24 hours. The media was then replaced with 1 ml of media containing one of four conditions: 1) media alone; 2) 10 μg/ml of polymyxin B; 3) 500 pg/ml of LPS (E. coli 055:B5, Sigma); 4) 500 pg/ml LPS and 10 μg/ml polymyxin B. TNF-α release was measured at 12 h after incubation using ELISA. Each group was plated in triplicate and the experiment was repeated two times. Data were analyzed by ANOVA. A p-value <0.05 was considered significant.

Raw 264.7 macrophages [3] = assay: PMMA particle-induced TNF-α release from macrophages with or without polymyxin B (ELISA); conditions: 0.30% PMMA particles plus 10 μg/ml polymyxin B
Procedure: as §1, §2
Quantification of TNF-α release with wear debris particles: Macrophages were cultured as above. The media was then replaced with 1 ml of media containing one of three conditions: 1) media alone; 2) PMMA particles at a dose of 0.30% v/v; 3) 0.30% PMMA particles plus 10 μg/ml of polymyxin B. TNF-α levels were measured at 1, 4, and 12 hours post challenge.

Substance | decrease of particle-induced TNF-α release (Raw 264.7 macrophages [1]; 4 h post challenge) [%] | decrease of particle-induced TNF-α release (Raw 264.7 macrophages [1]; 12 h post challenge) [%] | TNF-α levels (Raw 264.7 macrophages [2]; 500 pg/ml LPS plus 10 μg/ml polymyxin B) [pg/mL] | TNF-α release compared to macrophages alone (Raw 264.7 macrophages [2]; 10 μg/ml polymyxin B alone, no LPS) | effect on particle-induced TNF-α release (Raw 264.7 macrophages [3]; 4 h) | decrease of particle-induced TNF-α release (Raw 264.7 macrophages [3]; 12 h, non-significant) [%] | effect on particle-induced TNF-α release (Raw 264.7 macrophages [3]; overall statement)
MyD88 inhibitory peptide: MyD88 homodimerization inhibitory peptide (Imgenex), which binds the MyD88 monomer, blocking MyD88 activation; possibly DRQIKIWFQNRRMKWKKRDVLPGT of b57 | 63 | 32 | – | – | – | – | –
Polymyxin B | – | – | 1120 | no significant difference | did not alter | 25 | no significant effect
